Results reported in the supplement of paper PMC11208160.

Assay: recombinant barcode read abundance after kanamycin selection (control-corrected) (log10(CPM+1)); higher = more efficient recombination; sequences stand for … in AGTGCAGAGAAAATCGGCCAGTTTTCTCTGCCTGCAGTCCGCATGCCGT…AGATTTATGCAGCGGACTGCCTTTCTCCCAAAGTGATAAACCGGACAGTATCATGGACCGGTTTTCCCGGTAATCCGTATTTGCAAGGTTGGTTTCACT; site = the 11-nt target
In short: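 In E. coli, a pooled library matched targets to IS621 bridge RNA target-binding loops and was introduced alongside a donor plasmid. Cells went onto chloramphenicol/ampicillin/kanamycin with 0.1 mM IPTG or onto chloramphenicol/ampicillin LB agar as control, in duplicate. Recombination efficiency, from recombinant-junction barcodes as counts per million, is averaged and control-corrected. It is reported as log10(CPM+1).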
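Further: IS621 recombinase and bridge RNA in Escherichia coli cells.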

Sequence | recombinant barcode read abundance (log10)
GTCATACCTTGGGTTCTAACCTGTTGCCT (site GTCCTACCTAG) | 0.0356
GTCATACCTTGGGTTCTAACCTGTTGCCT (site GTCGTACCTAG) | 0.111
GTCATACCTTGGGTTCTAACCTGTTGCCT (site GTCTTACCTAG) | 0.203
GTCATGCCTTGGGTTCTAACCTGTTGCCT (site GGCCTGCCTAG) | 0.0766
GTCATGCCTTGGGTTCTAACCTGTTGCCT (site GTCATGCCTAG) | 1.1
GTCCACCCTTGGGTTCTAACCTGTTGCAG (site GTCCACCCTCT) | 1.86
GTCCACCCTTGGGTTCTAACCTGTTGCAG (site GTCCACTCTGT) | 0.01
GTCCACTCTTGGGTTCTAACCTGTTGCTT (site GTCCACTCTAA) | 1.46
GTCCACTCTTGGGTTCTAACCTGTTGCTT (site GTCCAGTCTAC) | 0
GTCCAGGCTTGGGTTCTAACCTGTTGCGG (site GACCAGTCTCC) | 0.421
GTCCAGGCTTGGGTTCTAACCTGTTGCGG (site GTCCAGGCTCC) | 0.924
GTCCCTCCTTGGGTTCTAACCTGTTGCCT (site GTCCCTCCTAA) | 0.187
GTCCCTCCTTGGGTTCTAACCTGTTGCCT (site GTCCCTCCTAC) | 0.116
GTCCCTCCTTGGGTTCTAACCTGTTGCCT (site GTCCCTCCTAG) | 0.709
GTCCCTCCTTGGGTTCTAACCTGTTGCCT (site GTCCCTCCTAT) | 0.586
GTCCGAACTTGGGTTCTAACCTGTTGCCA (site GTCCGAACTTG) | 0.428
GTCCGAACTTGGGTTCTAACCTGTTGCCA (site GTCGGAGCTTG) | 0.0199
GTCCGTCCTTGGGTTCTAACCTGTTGCCT (site GTCCGTCCTAA) | 0.119
GTCCGTCCTTGGGTTCTAACCTGTTGCCT (site GTCCGTCCTAC) | 0.0319
GTCCGTCCTTGGGTTCTAACCTGTTGCCT (site GTCCGTCCTAG) | 0.833
GTCCGTCCTTGGGTTCTAACCTGTTGCCT (site GTCCGTCCTAT) | 0.0563
GTCCGTCCTTGGGTTCTAACCTGTTGCGT (site GTCCGTCCTAA) | 0.139
GTCCGTCCTTGGGTTCTAACCTGTTGCGT (site GTCCGTCCTAC) | 1.69
GTCCGTCCTTGGGTTCTAACCTGTTGCGT (site GTCCGTCCTAG) | 0.09
GTCCGTCCTTGGGTTCTAACCTGTTGCGT (site GTCCGTCCTAT) | 0.504
GTCCTATCTTGGGTTCTAACCTGTTGCTA (site AGGTCTACTGT) | 0.146

Sequence | recombinant barcode read abundance (log10)
GTCCTATCTTGGGTTCTAACCTGTTGCTA (site GTCCTATCTTA) | 0.656
GTCCTGTCTTGGGTTCTAACCTGTTGCCG (site GTCCTGTCTCG) | 1.16
GTCCTGTCTTGGGTTCTAACCTGTTGCCG (site GTCGTGTCTCG) | 0.397
GTCGACCCTTGGGTTCTAACCTGTTGCCT (site GTCGACCCTAG) | 1.98
GTCGACCCTTGGGTTCTAACCTGTTGCCT (site GTCGACGCTAG) | 0.136
GTCGCGACTTGGGTTCTAACCTGTTGCCT (site GTCGCGACTAG) | 0.0792
GTCGCGACTTGGGTTCTAACCTGTTGCCT (site GTCGCGCCTAG) | 0.353
GTCGCGACTTGGGTTCTAACCTGTTGCCT (site GTCGCGGCTAG) | 0.145
GTCGCGACTTGGGTTCTAACCTGTTGCCT (site GTCGCGTCTAG) | 0.215
GTCGGAGCTTGGGTTCTAACCTGTTGCCA (site GTCCGAACTTG) | 0.0692
GTCGGAGCTTGGGTTCTAACCTGTTGCCA (site GTCGGAGCTTG) | 0.959
GTCGGGCCTTGGGTTCTAACCTGTTGCCT (site ATCGGGCCTAG) | 0.0962
GTCGGGCCTTGGGTTCTAACCTGTTGCCT (site CTCGGGCCTAG) | 0.0668
GTCGGGCCTTGGGTTCTAACCTGTTGCCT (site GTCGGGCCTAG) | 0.686
GTCGGGCCTTGGGTTCTAACCTGTTGCCT (site TTCGGGCCTAG) | 0.126
GTCGTGTCTTGGGTTCTAACCTGTTGCCG (site GTCCTGTCTCG) | 0.0845
GTCGTGTCTTGGGTTCTAACCTGTTGCCG (site GTCGTGTCTCG) | 1.28
GTCGTTGCTTGGGTTCTAACCTGTTGCCT (site ATCGTTGCTAG) | 0.522
GTCGTTGCTTGGGTTCTAACCTGTTGCCT (site CTCGTTGCTAG) | 0.0407
GTCGTTGCTTGGGTTCTAACCTGTTGCCT (site GTCGTTGCTAG) | 1.07
GTCGTTGCTTGGGTTCTAACCTGTTGCCT (site TTCGTTGCTAG) | 1.19
GTCTAATCTTGGGTTCTAACCTGTTGCCT (site GTCTAATCTAG) | 0.719
GTCTAATCTTGGGTTCTAACCTGTTGCCT (site GTCTCATCTAG) | 0.271
GTCTAATCTTGGGTTCTAACCTGTTGCCT (site GTCTGATCTAG) | 0.174
GTCTAATCTTGGGTTCTAACCTGTTGCCT (site GTCTTATCTAG) | 0.0315
GTCTACGCTTGGGTTCTAACCTGTTGCCA (site GTCTAAGCTCG) | 0.0189

Sequence | recombinant barcode read abundance (log10)
GTCTACGCTTGGGTTCTAACCTGTTGCCA (site GTCTACGCTTG) | 0.253
GTCTCACCTTGGGTTCTAACCTGTTGCGG (site GTATCTCCTCC) | 0.094
GTCTCACCTTGGGTTCTAACCTGTTGCGG (site GTCTCACCTCC) | 0.91
GTCTGTTCTTGGGTTCTAACCTGTTGCCT (site GACTGTTCTAG) | 0.17
GTCTGTTCTTGGGTTCTAACCTGTTGCCT (site GCCTGTTCTAG) | 0.071
GTCTGTTCTTGGGTTCTAACCTGTTGCCT (site GGCTGTTCTAG) | 0.16
GTCTGTTCTTGGGTTCTAACCTGTTGCCT (site GTCTGTTCTAG) | 0.852
GTCTTCTCTTGGGTTCTAACCTGTTGCTT (site GTCTACTCTCA) | 0.0691
GTCTTCTCTTGGGTTCTAACCTGTTGCTT (site GTCTTCTCTAA) | 0.487
GTGAAGCCTTGGGTTCTAACCTGTTGCCA (site GTGAAGCCTTG) | 0.758
GTGAAGCCTTGGGTTCTAACCTGTTGCCA (site GTGTATCCTTG) | 0.165
GTGAGAGCTTGGGTTCTAACCTGTTGCGG (site GTGAGAGCTCC) | 1.43
GTGAGAGCTTGGGTTCTAACCTGTTGCGG (site GTGAGCACTCC) | 0.0453
GTGAGCACTTGGGTTCTAACCTGTTGCTA (site AATTAGCCTAG) | 0.0422
GTGAGCACTTGGGTTCTAACCTGTTGCTA (site GTGAGCACTTA) | 0.337
GTGAGGACTTGGGTTCTAACCTGTTGCCT (site ATGAGGACTAG) | 0.739
GTGAGGACTTGGGTTCTAACCTGTTGCCT (site CTGAGGACTAG) | 0.133
GTGAGGACTTGGGTTCTAACCTGTTGCCT (site GTGAGGACTAG) | 1.49
GTGAGGACTTGGGTTCTAACCTGTTGCCT (site TTGAGGACTAG) | 0.316
GTGAGGACTTGGGTTCTAACCTGTTGCGT (site GTGAGGACTAC) | 3.11
GTGAGGACTTGGGTTCTAACCTGTTGCGT (site GTGCGGACTAC) | 0.236
GTGAGGACTTGGGTTCTAACCTGTTGCTG (site GTGAGGACTCA) | 2.68
GTGAGGACTTGGGTTCTAACCTGTTGCTG (site GTGTGGACTCT) | 0.0356
GTGATAGCTTGGGTTCTAACCTGTTGCGG (site GATATAGCTCC) | 0.16
GTGATAGCTTGGGTTCTAACCTGTTGCGG (site GTGATAGCTCC) | 1.12
